The melting point is the temperature, or range, at which the solid turns liquid. What is called EC50 is the concentration giving half of the maximal effect.

Experimental findings from patent US8008525B2, “Receptor function regulating agent” (Takeda Pharmaceutical Company Limited, priority 2003, dated 2011) are described below.

Data set [1] addresses T1, human 14273 receptor (Homo sapiens, UniProt Q5NUL3).
T1 construct: expressed in transfected cells
T1 sequence (Q5NUL3 1-361): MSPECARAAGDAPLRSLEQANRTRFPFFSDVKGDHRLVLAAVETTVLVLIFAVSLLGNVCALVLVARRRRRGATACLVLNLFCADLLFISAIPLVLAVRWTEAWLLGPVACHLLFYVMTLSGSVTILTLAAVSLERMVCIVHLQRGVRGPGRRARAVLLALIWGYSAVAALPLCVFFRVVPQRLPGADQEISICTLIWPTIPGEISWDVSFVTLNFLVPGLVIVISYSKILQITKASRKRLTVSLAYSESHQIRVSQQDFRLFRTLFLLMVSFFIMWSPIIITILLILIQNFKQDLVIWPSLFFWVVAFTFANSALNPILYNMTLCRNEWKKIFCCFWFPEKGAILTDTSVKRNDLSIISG
The data set can be described thus: Test Example 1: regulating effect for 14273 receptor function (agonist effect), change in intracellular calcium level by FLIPR. The class given is cell-based. The conditions noted are these: CHO cell line (No. 104) expressing human 14273 receptor, change of fluorescent intensity after 35 seconds. The procedure:
CHO cell lines (No. 104) in which a human 14273 receptor has expressed was diluted to contain 3×10^4/100 μl cells, and dispensed in Black walled 96-well plate (Costar) at a density of 100 μl/well, followed by culturing overnight in a CO2 incubator. A change in intracellular calcium level was measured using FLIPR (Molecular Device). The method is described as below. 50 μg of Fluo-3AM (DOJIN) was dissolved in 21 μl of DMSO (DOJIN) and an equal volume of 20% pluronic acid (Molecular Probes) was added thereto, followed by mixing them. The mixture was added to 10.6 ml of the assay buffer [which is prepared by adding 10 ml of a solution, which is prepared by adding 20 ml of 1 M HEPES (pH 7.4, DOJIN) to 1 L of HBSS (Invitrogen), dissolving 710 mg of probenecid (Sigma) in 5 ml of 1 N NaOH, and further adding 5 ml of the above-mentioned HBSS/HEPES solution and mixing it.] supplemented with 105 μl of fetal bovine serum to prepare a fluorescent dye solution. The medium of the cell plate was removed, the fluorescent dye solution was dispensed in 100 μl each per well. The culturing was performed in a CO2 incubator for 1 hour to incorporate the fluorescent dye into the cells. The cells after culturing were washed with the assay buffer. The compounds to be added to the cells were diluted to each concentration with a buffer solution to which CHAPS (DOJIN) was added in 0.015%, and dispensed in a plate for the test sample. Following the pretreatment above, a change in intracellular calcium level after addition of the compound was determined with FLIPR to investigate the agonist effect. An EC50 value was calculated from dose-reaction curve using the change of fluorescent intensity after 35 seconds from the reaction initiation.

Data set [2] deals with T1, human 14273 receptor. Kind of data set: Reference Example A2: reactivity of fatty acids, intracellular calcium by FLIPR in CHO-K1 cells expressing human 14273 receptor. The class given is cell-based. The conditions noted are these: 30 μM fatty acid; CHO-K1 cells transiently expressing human 14273; FLIPR (FIG. 1-5). The procedure: (§1) CHO-K1 cell line was cultured using Ham's F-12 medium (Invitrogen) containing 10% fetal bovine serum (Invitrogen), unless otherwise described. On the day before transfection was conducted, 4.5×10^5 cells were dispersed per 10 cm^2, and cultured at 37° C. for 15 hours by a CO2 incubator adjusted to a CO2 concentration of 5%. Transfection was carried out using a Lipofectamine reagent (Invitrogen) in accordance with the instruction accompanying the reagent. In the case of using a 6-well plate as culture dish, the following steps were performed. First of all, two tubes having a volume of 1.5 ml each were provided, and 100 μl of an Opti-MEM-I medium (Invitrogen) was dispensed to each of the tubes. Next, after adding 1 μg of an expression vector to one tube and adding 6 μl of the Lipofectamine reagent to the other tube, both of them were mixed, and left at rest at room temperature for 20 minutes. A mixture for transfection, in which 800 μl of the Opti-MEM-I medium was added to this solution, was added to the CHO-K1 cells previously washed using the Opti-MEM-I medium, and then the cells were cultured in the CO2 incubator for 6 hours. The cells after culturing were rinsed using PBS (Invitrogen), then detached using a 0.05% trypsin/EDTA solution (Invitrogen), and recovered through centrifugation. The number of the obtained cells was measured, and the cells were diluted to a concentration of 5×10^4 cells per 100 μl of the medium. This dilution was separately injected to a Black-walled 96-well plate (Costar) in an amount of 100 μl per well, and then the cells were incubated overnight in a CO2 incubator. To the CHO-K1 cells which transiently expressed the receptor during the transfection operation, various test samples were added, and the change in the intracellular calcium concentration during this operation was measured using FLIPR (Molecular Device). In order to measure the change in the intracellular calcium concentration with FLIPR, the following pretreatment was performed. First, Assay Buffer for washing cells was prepared in order to add a fluorescent dye Fluo3-AM (DOJIN) to the cells, or to wash cells immediately before performing the FLIPR assay. To a solution prepared by adding 20 ml of 1 M HEPES (pH 7.4) (DOJIN) to 1000 ml of HBSS (Invitrogen) (hereinafter, HBSS/HEPES solution), 10 ml of a solution prepared by dissolving 710 mg of probenecid (Sigma) in 5 ml of a 1 N NaOH solution, and then further added 5 ml of the HBSS/HEPES solution thereto was added, and this solution was used as the Assay Buffer. […] After performing the pretreatment as described above, the changes in the intracellular calcium concentration after addition of various test samples were measured using FLIPR.

Another data set has as its target T2, mouse 14273 receptor (Mus musculus, UniProt Q7TMA4).
T2 construct: expressed in transfected cells; host or cells: CHO-K1 cells, transient transfection with Lipofectamine
T2 sequence (Q7TMA4 1-361): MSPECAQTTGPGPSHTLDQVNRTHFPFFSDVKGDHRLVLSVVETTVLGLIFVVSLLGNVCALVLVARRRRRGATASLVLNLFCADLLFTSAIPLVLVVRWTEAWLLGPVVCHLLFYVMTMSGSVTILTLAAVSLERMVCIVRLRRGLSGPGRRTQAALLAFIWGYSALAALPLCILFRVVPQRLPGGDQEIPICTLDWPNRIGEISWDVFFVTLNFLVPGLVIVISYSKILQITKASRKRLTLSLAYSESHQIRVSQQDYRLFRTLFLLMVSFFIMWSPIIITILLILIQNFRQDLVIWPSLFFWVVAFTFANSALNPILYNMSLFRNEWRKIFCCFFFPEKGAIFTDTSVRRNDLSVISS
Kind of data set: Reference Example A2: reactivity of fatty acids, intracellular calcium by FLIPR in CHO-K1 cells expressing mouse 14273 receptor. In kind it is cell-based. The conditions noted are these: 30 μM fatty acid; CHO-K1 cells transiently expressing mouse 14273; FLIPR (FIG. 1-5). How it is done:
as §1
(In general: Calcium flux is commonly read through the fluorescence of an indicator in the cells.)

The next data set has as its system AtT-20 cells. Kind of data set: Reference Example A10: inhibitory activity of fatty acids against CRF-induced ACTH secretion from AtT-20 cells. The conditions noted are these: 10 nM CRF; 90 minutes; fatty acids conjugated with BSA; adhesive AtT-20 substrain (FIG. 13).

Compound `Cl.NCCOc1cc(COc2ccc(CCC(=O)O)cc2F)cc(Oc2ccccc2)c1` returned a melting point of 182 to 183 °C.

Compound `O=C(O)CCc1ccc(OCc2cccc(OCC(=O)O)c2)c(F)c1` [Example 107, 3-(4-{[3-(carboxymethoxy)benzyl]oxy}-3-fluorophenyl)propanoic acid] displayed a melting point of 150 to 151 °C.

`O=C(O)CCc1ccc(OCc2cc(OCC(=O)O)cc(Oc3ccccc3)c2)c(F)c1` [Example 129, 3-(4-{[3-(carboxymethoxy)-5-phenoxybenzyl]oxy}-3-fluorophenyl)propanoic acid] had a melting point of 122 to 124 °C.

As for `CCOc1cccc(COc2ccc(CCC(=O)O)cc2C)c1` [Example 180, 3-{4-[(3-ethoxybenzyl)oxy]-3-methylphenyl}propanoic acid], the EC50 at human 14273 receptor [1] was no more than 10 µM.

As to `CCOc1cccc(COc2ccc(CCC(=O)O)cc2F)c1` [Example 188, 3-{4-[(3-ethoxybenzyl)oxy]-3-fluorophenyl}propanoic acid], on human 14273 receptor [1], the concentration giving a half-maximal response (EC50) was no more than 10 µM.

For the compound `CCOc1cccc(COc2ccc(CCC(=O)O)cc2F)c1C` [Example 208, 3-{4-[(3-ethoxy-2-methylbenzyl)oxy]-3-fluorophenyl}propanoic acid], the EC50 on human 14273 receptor [1] is no more than 10 µM.

On to `O=C(O)CCc1ccc(OCc2cccc(Oc3ccccc3)c2)cc1` [Reference Example 8, 4-[(3-Phenoxyphenyl)methoxy]benzenepropanoic acid], for which the EC50 at human 14273 receptor [1] was no more than 10 µM.

On to `O=C(O)CCc1cc(F)c(OC2CCc3ccccc32)c(F)c1` (centres unmarked) [Reference Example 14, 3,5-Difluoro-4-[(2,3-dihydro-1H-inden-1-yl)oxy]benzenepropanoic acid], for which, at human 14273 receptor [1], the EC50 was no more than 10 µM.

For the compound `O=C(O)CCc1ccc(OCc2cccc(-c3ccccc3)c2)c(Cl)c1` [Reference Example 18, 4-([1,1′-Biphenyl]-3-ylmethoxy)-3-chlorobenzenepropanoic acid], at human 14273 receptor [1], the EC50 is no more than 10 µM.

For the compound `O=C(O)CCc1ccc(OC2CCCc3ccccc32)cc1` (centres unmarked) [Reference Example 20, 4-[(1,2,3,4-Tetrahydronaphthalen-1-yl)oxy]benzenepropanoic acid], the EC50 on human 14273 receptor [1] was no more than 10 µM.

For `CC1(C)Cc2ccccc2C1Oc1ccc(CCC(=O)O)cc1` (centres unmarked) [Reference Example 25, 4-[(2,3-Dihydro-2,2-dimethyl-1H-inden-1-yl)oxy]benzenepropanoic acid], the 50% effective concentration (EC50) on human 14273 receptor [1] was no more than 10 µM.

As to `O=C(O)CCc1ccc(OCc2ccccc2Oc2ccccc2)cc1` [Reference Example 30, 4-[(2-Phenoxyphenyl)methoxy]benzenepropanoic acid], on human 14273 receptor [1], the EC50 is no more than 10 µM.

For the compound `COc1ccc2c(c1)C(Oc1ccc(CCC(=O)O)cc1)C(C)(C)C2` (centres unmarked) [Reference Example 44, 4-[(2,3-Dihydro-6-methoxy-2,2-dimethyl-1H-inden-1-yl)oxy]benzenepropanoic acid], the EC50 on human 14273 receptor [1] is no more than 10 µM.

As for `CC1(C)Cc2ccc(Cl)cc2C1Oc1ccc(CCC(=O)O)cc1` (centres unmarked) [Reference Example 47, 4-[(6-Chloro-2,3-dihydro-2,2-dimethyl-1H-inden-1-yl)oxy]benzenepropanoic acid], the EC50 at human 14273 receptor [1] is no more than 10 µM.

On to `Cc1ccc2c(c1)C(Oc1ccc(CCC(=O)O)cc1)C(C)(C)C2` (centres unmarked) [Reference Example 50, 4-[(2,3-Dihydro-2,2,6-trimethyl-1H-inden-1-yl)oxy]benzenepropanoic acid], for which the EC50 on human 14273 receptor [1] was no more than 10 µM.

`CCCCC/C=C\C/C=C\C/C=C\C/C=C\CCCC(=O)O` [arachidonic acid]: the “response (increase in the intracellular calcium concentration)” value at human 14273 receptor [2] and at mouse 14273 receptor was “specifically responsed” throughout.

For the compound `CCCC(=O)O` [butyric acid], in the data set on AtT-20 cells, the “suppression of CRF-induced ACTH secretion” value (from here on “suppression”) is reported as “did not exhibit significant inhibition”.

In the case of `CCCCC/C=C\C/C=C\CCCCCCCC(=O)O` [linoleic acid], the “response (increase in the intracellular calcium concentration)” value at human 14273 receptor [2] and at mouse 14273 receptor was “specifically responsed” in each case.

On to `CCCCCC/C=C\CCCCCCCC(=O)O` [palmitoleic acid], for which the “response (increase in the intracellular calcium concentration)” value at human 14273 receptor [2] and on mouse 14273 receptor was “specifically responsed” each time.

Regarding `CC/C=C\C/C=C\C/C=C\CCCCCCCC(=O)O` [α-linolenic acid], in the data set with AtT-20 cells, the “suppression” value was “significant suppression”.

In the case of `CCCCC/C=C\C/C=C\C/C=C\CCCCC(=O)O` [γ-linolenic acid], the “response (increase in the intracellular calcium concentration)” value at human 14273 receptor [2] and on mouse 14273 receptor was “specifically responsed” each time. For the same compound, the “suppression” value with AtT-20 cells is “significant suppression”.
